Tests used:
Format in all cases: in vivo
[1] = system: Yellow Fever Mosquito (Aedes aegypti, AEDSAE); details: about 1 day-old larvae, 96-well plate from 4000 ppm DMSO master, 3 days at room temperature
Procedure, shortened: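 Each well was scored for mortality after 3 days at room temperature under a non-evaporative lid. Test molecules came from DMSO masters (4000 ppm stock) diluted with water/acetone 90:10 and dispensed into six replicate plates, which were then infested with roughly 1-day-old larvae in liver-powder water.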

[2] = system: Green Peach Aphid (Myzus persicae, MYZUPE); assay: Bioassay on Green Peach Aphid (GPA), foliar spray on cabbage seedlings; details: 72 h, 200 ppm foliar spray on cabbage seedlings, three days, Abbott corrected % control, read-out: GPA % Control (or Mortality) rating
Experimental: Certain molecules disclosed in this document were tested against GPA using procedures described in the following example. In the reporting of the results, the “GPA & YFM Rating Table” was used (See Table Section).
Cabbage seedlings grown in 3-inch pots, with 2-3 small (3-5 cm) true leaves, were used as test substrate. The seedlings were infested with 20-50 GPA (wingless adult and nymph stages) one day prior to chemical application. Four pots with individual seedlings were used for each treatment. Test molecules (2 mg) were dissolved in 2 mL of acetone/methanol (1:1) solvent, forming stock solutions of 1000 ppm test molecule.
The stock solutions were diluted 5× with 0.025% Tween 20 in water to obtain the solution at 200 ppm test molecule. A hand-held aspirator-type sprayer was used for spraying a solution to both sides of […] leaves until runoff. Reference plants (solvent check) were sprayed with the diluent only containing 20% by volume of acetone/methanol (1:1) solvent. Treated plants were held in a holding room for three days at approximately 25° C. and ambient relative humidity (RH) prior to grading. Evaluation was conducted by counting the number of live aphids per plant under a microscope. Percent control was measured using Abbott's correction formula (W. S. Abbott, “A Method of Computing the Effectiveness of an Insecticide” J. Econ. Entomol. 18 (1925), pp. 265-267) as follows. Corrected % Control=100*(X−Y)/X where X=No. of live aphids on solvent check plants and Y=No. of live aphids on treated plants. The results are indicated in the table entitled “Table ABC: Biological Results” (See Table Section).

[3] = system: Cabbage Looper (Trichoplusia ni, TRIPNI); assay: Bioassay on Cabbage Looper (CL), 128-well diet tray assay; details: 168 h, 50 μg/cm^2 on artificial diet, second instar larvae, 25° C., five to seven days, average of eight wells, read-out: CL % Control (or Mortality) rating
Procedure, shortened: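 Mortality of second instar larvae exposed to diet coated with 50 μg/cm^2 compound (acetone-water 90:10 vehicle, dried); 25° C., 5–7 days.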

[4] = system: Beet Armyworm (Spodoptera exigua, LAPHEG); assay: Bioassay on Beet Armyworm (BAW), 128-well diet tray assay; details: 168 h, 50 μg/cm^2 on artificial diet, second instar larvae, 25° C., five to seven days, average of eight wells, read-out: BAW % Control (or Mortality) rating
Procedure, shortened: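 Test molecule dissolved in acetone-water 90:10 is applied at 50 μg/cm^2 onto artificial diet and allowed to dry. Second instar larvae, one to five per well, are then added, and trays are vented and kept at 25° C. for five to seven days before mortality is scored.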

| SMILES | YFM % Control (or Mortality) rating [1] | mortality at 200 ppm [2] | mortality at 50 µg/cm2 [3] | mortality at 50 µg/cm2 [4] |
| --- | --- | --- | --- | --- |
| O=C(NC1CC(F)(F)C1)c1cc(NC(=O)[C@H]2[C@H](c3ccc(F)c(Cl)c3)C2(Cl)Cl)ccc1Cl (relative stereo) [PF7, trans-2-Chloro-5-(2,2-dichloro-3-(3-chloro-4-fluorophenyl)cyclopropane-1-carboxamido)-N-(3,3-difluorocyclobutyl)benzamide] | D (No activity noticed in this bioassay) | 80 to 100% | 50 to 100% | 50 to 100% |
| N#CC1(NC(=O)c2cc(NC(=O)[C@H]3[C@H](c4cc(Cl)c(Cl)c(Cl)c4)C3(Cl)Cl)ccc2Cl)CC1 (relative stereo) [Molecule F10, trans-2-Chloro-N-(1-cyanocyclopropyl)-5-(2,2-dichloro-3-(3,4,5-trichlorophenyl)cyclopropanecarboxamido)benzamide] | A (80-100) | 80 to 100% | 50 to 100% | 50 to 100% |
| O=C(NC1CCSC1)c1cc(NC(=O)[C@H]2[C@H](c3cc(Cl)c(Cl)c(Cl)c3)C2(Cl)Cl)ccc1Cl (relative stereo) [Molecule F8, trans-2-chloro-5-(2,2-dichloro-3-(3,4,5-trichlorophenyl)cyclopropanecarboxamido)-N-(tetrahydrothiophen-3-yl)benzamide] | A (80-100) | 0% | 50 to 100% | 50 to 100% |
| N#CC1(NC(=O)c2cc(NC(=O)[C@H]3[C@H](c4cc(Cl)cc(Cl)c4)C3(Cl)Cl)ccc2Cl)CCC1 (relative stereo) [Molecule F12, trans-2-Chloro-N-(1-cyanocyclobutyl)-5-(2,2-dichloro-3-(3,5-dichlorophenyl)cyclopropanecarboxamido)benzamide] | A (80-100) | 0 to 80% | 50 to 100% | 50 to 100% |
| CN(C(=O)c1cc(NC(=O)[C@H]2[C@H](c3cc(Cl)cc(Cl)c3)C2(Cl)Cl)ccc1Cl)C1CC(F)(F)C1 (relative stereo) [Molecule F32, trans-2-Chloro-5-(2,2-dichloro-3-(3,5-dichlorophenyl)cyclopropanecarboxamido)-N-(3,3-difluorocyclobutyl)-N-methylbenzamide] | A (80-100) | 80 to 100% | 50 to 100% | 50 to 100% |
| O=C(NC1CC(F)(F)C1)c1cc(NC(=O)[C@H]2[C@H](c3ccc(OC(F)(F)F)c(Cl)c3)C2(Cl)Cl)ccc1Cl (relative stereo) [Molecule F21, trans-2-Chloro-5-(2,2-dichloro-3-(3-chloro-4-(trifluoromethoxy)phenyl)cyclopropanecarboxamido)-N-(3,3-difluorocyclobutyl)benzamide] | A (80-100) | 80 to 100% | 50 to 100% | 50 to 100% |
| N#CC1(NC(=O)c2cc(NC(=O)[C@H]3[C@H](c4cccc(C(F)(F)F)c4)C3(Cl)Cl)ccc2Cl)CC1 (relative stereo) [Molecule F18, trans-2-Chloro-N-(1-cyanocyclopropyl)-5-(2,2-dichloro-3-(3-(trifluoromethyl)phenyl)cyclopropanecarboxamido)benzamide] | B (More than 0-Less than 80) | 80 to 100% | 50 to 100% | 50 to 100% |
| N#Cc1cc(Cl)cc([C@H]2[C@H](C(=O)Nc3ccc(Cl)c(C(=O)NC4(C#N)CC4)c3)C2(Cl)Cl)c1 (relative stereo) [Molecule F78, trans-2-Chloro-N-(1-cyanocyclopropyl)-5-(2,2-dichloro-3-(3-chloro-5-cyanophenyl)cyclopropane-1-carboxamido)benzamide] | D (No activity noticed in this bioassay) | 0 to 80% | 50 to 100% | 50 to 100% |
| CN(C(=O)c1cc(NC(=O)[C@H]2[C@H](c3cc(Cl)c(Cl)c(Cl)c3)C2(Cl)Cl)ccc1Cl)C1CC(F)(F)C1 (relative stereo) [Molecule F34, trans-2-Chloro-5-(2,2-dichloro-3-(3,4,5-trichlorophenyl)cyclopropanecarboxamido)-N-(3,3-difluorocyclobutyl)-N-methylbenzamide] | A (80-100) | 0 to 80% | 50 to 100% | 50 to 100% |
| O=C(NC1CC(F)(F)C1)c1cc(NC(=O)[C@H]2[C@H](c3cc(Cl)cc(Cl)c3)C2(Cl)Br)ccc1Cl (relative stereo) [Molecule F71, trans-5-(2-Bromo-2-chloro-3-(3,5-dichlorophenyl)cyclopropane-1-carboxamido)-2-chloro-N-(3,3-difluorocyclobutyl)benzamide] | B (More than 0-Less than 80) | 80 to 100% | 50 to 100% | 50 to 100% |
| O=C(NC1CC(F)(F)C1)c1cc(NC(=O)[C@H]2[C@H](c3cc(Cl)cc(Br)c3)C2(Cl)Cl)ccc1Cl (relative stereo) [PF8, trans-5-(3-(3-Bromo-5-chlorophenyl)-2,2-dichlorocyclopropane-1-carboxamido)-2-chloro-N-(3,3-difluorocyclobutyl)benzamide] | D (No activity noticed in this bioassay) | 80 to 100% | 50 to 100% | 50 to 100% |
| N#CC1(NC(=O)c2cc(NC(=O)[C@H]3[C@H](c4cc(Cl)c(Cl)c(Cl)c4)C3(Cl)Cl)ccc2Cl)CCC1 (relative stereo) [Molecule F13, trans-2-Chloro-N-(1-cyanocyclobutyl)-5-(2,2-dichloro-3-(3,4,5-trichlorophenyl)cyclopropanecarboxamido)benzamide] | A (80-100) | 0 to 80% | 50 to 100% | 50 to 100% |
| O=C(NC1CSC1)c1cc(NC(=O)[C@H]2[C@H](c3ccc(Cl)c(Cl)c3)C2(Cl)Cl)ccc1Cl (relative stereo) [Molecule F16, trans-2-Chloro-5-(2,2-dichloro-3-(3,4-dichlorophenyl)cyclopropanecarboxamido)-N-(thietan-3-yl)benzamide] | A (80-100) | 80 to 100% | 50 to 100% | 50 to 100% |
| N#CC1(NC(=O)c2cc(NC(=O)[C@H]3[C@H](c4cc(Cl)cc(Cl)c4)C3(Cl)Cl)ccc2Cl)CC1 (relative stereo) [Molecule F4, trans-2-Chloro-N-(1-cyanocyclopropyl)-5-(2,2-dichloro-3-(3,5-dichlorophenyl)cyclopropanecarboxamido)benzamide] | A (80-100) | 80 to 100% | 50 to 100% | 50 to 100% |
| O=C(NC1CCOCC1)c1cc(NC(=O)[C@H]2[C@H](c3cc(Cl)cc(Cl)c3)C2(Cl)Cl)ccc1Cl (relative stereo) [Molecule F55, trans-2-chloro-5-(2,2-dichloro-3-(3,5-dichlorophenyl)cyclopropanecarboxamido)-N-(tetrahydro-2H-pyran-4-yl)benzamide] | – | 80 to 100% | 50 to 100% | 50 to 100% |
| O=C(NC1CN(C(=O)C2CC2)C1)c1cc(NC(=O)[C@H]2[C@H](c3cc(Cl)cc(Cl)c3)C2(Cl)Cl)ccc1Cl (relative stereo) [PF9, trans-2-chloro-N-(1-(cyclopropanecarbonyl)-azetidin-3-yl)-5-(2,2-dichloro-3-(3,5-dichlorophenyl)cyclopropane-1-carboxamido)benzamide] | B (More than 0-Less than 80) | – | 50 to 100% | 50 to 100% |
| O=C(NC1(C(=O)NCC(F)(F)F)CC1)c1cc(NC(=O)C2C(c3cc(Cl)cc(Cl)c3)C2(Cl)Cl)ccc1Cl (stereo not drawn) [PF42, trans-2-Chloro-5-(2,2-dichloro-3-(3,5-dichlorophenyl)cyclopropane-1-carbox-amido)-N-(1-((2,2,2-trifluoroethyl)carbamoyl)cyclopropyl)benzamide] | A (80-100) | – | 50 to 100% | 50 to 100% |

Reference: patent publication US9795139B2, “Molecules having pesticidal utility, and intermediates, compositions, and processes, related thereto” (priority 2015, dated 2017)
